Test results as given in the C3SDB collision cross section collection.
Values joined by “and” are separate entries in the source; they are usually repeats but may differ in a detail not shown here. Equal entries are not always repeated.

Details: instrument: DT, single field, calibrated with ESI Low Concentration Tuning Mix (Agilent)

Structure (SMILES) | collision cross section (N2) ([M+H]+) [Å²] | collision cross section (N2) ([M+Na]+) | collision cross section (N2) ([M-H]-) | further results
Cc1cc2nc3c(=O)[nH]c(=O)nc-3n(C[C@H](O)[C@H](O)[C@H](O)COP(=O)(O)OP(=O)(O)OC[C@H]3O[C@@H](n4cnc5c(N)ncnc54)[C@H](O)[C@@H]3O)c2cc1C [FAD] | 249 | 250.3 Å² | 238.7 Å² | collision cross section (N2) ([M+Na-2H]-): 256.2 Å²
COc1cc(/C=C/C(=O)O)ccc1O [FERULATE] |  |  | 139.8 Å² | 
OCC1(O)OC[C@@H](O)[C@@H](O)[C@@H]1O (stereo partly drawn) [FRUCTOSE] |  | 141.5 Å² |  | 
O=P(O)(O)O[C@H]1O[C@H](CO)[C@H](O)[C@H](O)[C@H]1O [GALACTOSE 1-PHOSPHATE] |  | 157.7 Å² | 148.2 Å² | collision cross section (N2) ([M+K]+): 158.5 Å²
OC[C@H]1OC(O)[C@H](O)[C@@H](O)[C@H]1O (stereo partly drawn) [GALACTOSE] |  | 141.9 Å² |  | 
O=C(O)[C@H]1O[C@H](O)[C@H](O)[C@@H](O)[C@H]1O [GALACTURONATE] |  | 145.3 Å² | 131.3 Å² | 
CCCCC/C=C\C/C=C\C/C=C\CCCCC(=O)[O-] [GAMMA-LINOLENATE] |  |  | 174.8 Å² | 
CC(C)=CCC/C(C)=C/COP(=O)(O)OP(=O)(O)O [GERANYL-PP] |  |  | 167.2 Å² | collision cross section (N2) ([M+Na-2H]-): 173.8 Å²
N[C@@H](C(=O)O)[C@@H](O)[C@H](O)[C@H](O)CO [GLUCOSAMINATE] | 141.8 | 146.5 Å² | 135.7 Å² | 
N[C@@H]1[C@@H](O)[C@H](O)[C@@H](COP(=O)(O)O)O[C@@H]1O [GLUCOSAMINE 6-PHOSPHATE] |  |  | 148.1 Å² | 
O=C(O)[C@H]1OC(O)[C@H](O)[C@@H](O)[C@@H]1O (stereo partly drawn) [GLUCURONATE] |  | 150.2 Å² | 131.7 Å² | 
O=C(O)CCCC(=O)O [GLUTARATE] |  |  | 121.3 Å² and 121.4 Å² | collision cross section (N2) ([M+Na-2H]-): 129 Å² and 129.1 Å²
O=C(O)[C@H](O)CO [GLYCERATE] |  |  | 112.6 Å² | 
CCCCCCCCCCCCCC(=O)OCC(COC(=O)CCCCCCCCCCCCC)OC(=O)CCCCCCCCCCCCC [GLYCERYL TRIMYRISTATE] |  | 291.4 Å² |  | 
Nc1nc(=O)c2[nH]cnc2[nH]1 [GUANINE] |  | 137.8 Å² |  | collision cross section (N2) ([M+K]+): 136 Å²
Nc1nc(=O)c2ncn([C@@H]3O[C@H](COP(=O)(O)O)[C@@H](O)[C@H]3O)c2[nH]1 [GUANOSINE MONOPHOSPHATE] | 179.5 | 174.3 Å² | 169.4 Å² | collision cross section (N2) ([M+Na-2H]-): 172.1 Å²
CCCCCCCCCCCCCCCCC(=O)[O-] [HEPTADECANOATE] |  |  | 172.9 Å² | 
O=C(O)Cc1cc(O)ccc1O [HOMOGENTISATE] |  |  | 132.4 Å² | 
NCCS(=O)O [HYPOTAURINE] | 125.4 |  | 132.6 Å² | 
NC(=O)Cc1c[nH]c2ccccc12 [INDOLE-3-ACETAMIDE] | 137 | 143.4 Å² | 135.5 Å² | 
OCCc1c[nH]c2ccccc12 [INDOLE-3-ETHANOL] | 133.6 |  | 132.6 Å² | 
COC(=O)Cc1c[nH]c2ccccc12 [INDOLE-3-METHYL ACETATE] | 138.7 | 147.2 Å² | 141.1 Å² | 
O=C(O)C(=O)Cc1c[nH]c2ccccc12 [INDOLE-3-PYRUVATE] |  |  | 137.6 Å² | 
O=CCc1c[nH]c2ccccc12 [INDOLEACETALDEHYDE] | 132.3 |  | 130.7 Å² | 

Structure (SMILES) | collision cross section (N2) ([M+H]+) [Å²] | collision cross section (N2) ([M+Na]+) | collision cross section (N2) ([M-H]-) | further results
CC[C@H](C)[C@H](N)C(=O)O [ISOLEUCINE] | 133 |  | 129.3 Å² | 
O=C1O[C@H]([C@@H](O)CO)[C@H](O)[C@@H]1O [L-GULONOLACTONE] |  | 140.8 Å² | 129.6 Å² | collision cross section (N2) ([M+H2O-H]-): 133.5 Å²
NC(=O)[C@@H](N)Cc1c[nH]c2ccccc12 [L-TRYPTOPHANAMIDE] | 150.5 | 147.7 Å² | 143.3 Å² | 
CCCCCCCCCCCC(=O)O[C@H](CC(=O)[O-])C[N+](C)(C)C [LAUROYLCARNITINE] | 199 | 209.4 Å² |  | 
Cc1cc2nc3[nH]c(=O)[nH]c(=O)c3nc2cc1C [LUMICHROME] | 153.1 | 167.7 Å² | 155.1 Å² | collision cross section (N2) ([M+H20-H]-): 160.2 Å²
O=P(O)(O)OC[C@H]1OC(O)[C@@H](O)[C@@H](O)[C@@H]1O (stereo partly drawn) [MANNOSE 6-PHOSPHATE] |  | 156.1 Å² | 146.2 Å² | collision cross section (N2) ([M+Na-2H]-): 156.7 Å²
CS(=N)(=O)CCC(N)C(=O)O (stereo not drawn) [METHIONINE SULFOXIMINE] | 136.9 | 138.1 Å² | 136.2 Å² | 
CSCC[C@H](N)C(=O)O [METHIONINE] | 133.1 |  | 132 Å² | 
COC(=O)CCCN [METHYL 4-AMINOBUTYRATE] | 124.6 |  |  | 
CO[C@@H]1O[C@H](CO)[C@H](O)[C@H](O)[C@H]1O [METHYL GALACTOSIDE] |  | 145.4 Å² |  | 
CC(C)=CCNc1ncnc2nc[nH]c12 [N6-(DELTA2-ISOPENTENYL)-ADENINE] | 145.5 |  | 150.5 Å² | 
CN(C)C(N)=NCCC[C@H](N)C(=O)O [N,N-DIMETHYLARGININE] | 143.9 | 157.2 Å² |  | 
CC(=O)N[C@@H](C)C(=O)O [N-ACETYLALANINE] |  | 134.7 Å² |  | 
CC(=O)N[C@@H]1[C@@H](O)[C@@H](O)[C@@H](CO)O[C@@H]1O [N-ACETYLGALACTOSAMINE] |  | 150.3 Å² |  | collision cross section (N2) ([M+K]+): 151.4 Å²
CC(=O)N[C@@H]1[C@@H](O)[C@H](O)[C@@H](CO)O[C@H]1O [N-ACETYLGLUCOSAMINE] |  | 150.7 Å² and 157.8 Å² | 152.5 Å² | 
CC(=O)N[C@@H]1C(O)O[C@H](CO)[C@@H](O)[C@@H]1O (stereo partly drawn) [N-ACETYLMANNOSAMINE] |  | 150.2 Å² |  | 
CC(=O)NCCCCN [N-ACETYLPUTRESCINE] | 128.6 | 134.5 Å² |  | 
CC(=O)N[C@@H](CO)C(=O)O [N-ACETYLSERINE] |  | 133.4 Å² | 127.2 Å² | 
CC(=O)NCCc1c[nH]c2ccc(O)cc12 [N-ACETYLSEROTONIN] | 149.6 | 153.5 Å² | 150.5 Å² | 
CC(=O)NC(Cc1c[nH]c2ccccc12)C(=O)O (stereo not drawn) [N-ACETYLTRYPTOPHAN] | 153.8 | 158.5 Å² | 158.3 Å² | 
CC(=O)NC(CCCCN)C(=O)O (stereo not drawn) [N-ALPHA-ACETYLLYSINE] | 145.5 | 144.4 Å² | 145 Å² | 
CN[C@H](CC(=O)O)C(=O)O [N-METHYLASPARTATE] | 130 | 134.7 Å² | 124 Å² | 
NC(=O)c1ccc[n+]([C@@H]2O[C@H](COP(=O)(O)OP(=O)(O)OC[C@H]3O[C@@H](n4cnc5c(=O)nc[nH]c54)[C@H](O)[C@@H]3O)[C@@H](O)[C@H]2O)c1 [NICOTINAMIDE HYPOXANTHINE DINUCLEOTIDE] | 221.1 | 229.7 Å² | 217.7 Å² | collision cross section (N2) ([M+Na-2H]-): 217.2 Å²
CCC[C@H](N)C(=O)O [NORVALINE] | 120.9 | 133.1 Å² | 142 Å² | 
